Results on ten compounds are retold here after patent US4588525A, “Prodrug compounds for dermal application” (Molecular Biosystems, Inc., priority 1984, dated 1986).

The conditions of data set [1]: topical, unless accompanied by oral nicotinamide; cited from earlier work.
For data set [2] the following is noted: in vivo; cited from earlier work.
The next data set concerns cancer. To be noted: use questionable due to the CNS side effects; cited from earlier work.
The next data set has as its system human lung fibroblasts. The experiment in a line: Inhibition of growth of human lung fibroblasts in culture. To be noted: for IC50: Homo sapiens, Fibroblast, growth inhibition 50%, usually 3-4 days, 10^4 cells/35 mm dish, Coulter counter, read-out: ID50 (the source's name). It is filed as cell-based. The method, then: Drugs were evaluated by their ability to inhibit the growth of human lung fibroblasts in culture. Human lung fibroblasts were grown in Eagle's Minimal Essential Media (EMEM) which contained 10% fetal calf serum, 1X non-essential amino acids, and 250 units penicillin and 250 μg streptomycin/ml. Stock cultures of the cells were grown on 100 mm culture plates. For testing purposes, cells were removed from the stock plates with 3 mls trypsin/versene and after appropriate dilution in the culture medium were plated onto 35 mm dishes. Typically, cells were subcultured at 10^4 cells/35 mm dish in 1.5 mls of medium and allowed to attach for 24 hours before the addition of drugs. Triplicate plates were treated with drugs over a wide concentration range. In some cases, it was necessary to dissolve stock solutions of the drugs with 50% ethanol. In such cases, appropriate controls were included to assure that the ethanol had no adverse effects. In all cases, untreated triplicate control plates were employed in order to determine the cell population at the time of drug addition and at the time of experiment ccmpletion (usual 3-4 days). The number of cells on the test and control plates was determined by first removing the medium by aspiration followed by gentle washing with 1 ml phosphate buffered saline. Trypsin/versene (0.5 ml) was then added and the plates incubated at 37° C. for up to 15 minutes or until the cells became detached. One milliliter of EMEM which contained 1X non-essential amino acids was then added in order to neutralize the action of trypsin. The cells were then diluted into ISOTON II (Curtin Matheson Scientific, Houston, Tex.) and counted on a Coulter counter (Coulter Electronics, Hialeah, Fla.) according to the Coulter counter owner's manual.

For another data set, the system named is cellular enzymes. The experiment in a line: Conversion by cellular enzymes to active 6-aminonicotinamide (interpretation of Table A). Format: cell-based, human. From the text: Such cleavages might be exploited to retain local activity but to eliminate systemic toxicity.

For `NC(=O)c1ccc(N)nc1` [6-Aminonicotinamide, 6-aminonicotinamide], the “central nervous system toxicity (CNS)” value in data set [1] was “a central nervous system toxicity (CNS) may result”. Also, the “effectiveness against psoriasis compared with methotrexate” value in data set [2] is reported as “more effective against psoriasis than methotrexate”. The anti-cancer activity entry with cancer is “anti-cancer activity”. In the data set with human lung fibroblasts, the IC50 is 2 µM.
In the case of `CCOC(=O)CCCCC(=O)Nc1ccc(C(N)=O)cn1` [6-Aminonicotinamide-N^6 --apidic acid ethyl ester], in the data set with human lung fibroblasts, the IC50 amounted to 30 µM.
`CCCCOC(=O)CCC(=O)Nc1ccc(C(N)=O)cn1` [6-Aminonicotinamide-N^6 --succinate butyl ester]: the IC50 with human lung fibroblasts amounted to 20 µM.
For the compound `CCOC(=O)CCC(=O)Nc1ccc(C(N)=O)cn1` [6-Aminonicotinamide-N^6 --succinate ethyl ester], the IC50 in the data set on human lung fibroblasts is 5 µM.
Same read-out and setting: then `CCCCCCOC(=O)CCC(=O)Nc1ccc(C(N)=O)cn1` [6-Aminonicotinamide-N^6 --succinate hexyl ester], with 20 µM; and `COC(=O)CCC(=O)Nc1ccc(C(N)=O)cn1` [6-Aminonicotinamide-N^6 --succinate methyl ester], with 20 µM.
`NC(=O)c1ccc(NC(=O)CCC(=O)O)nc1` [6-Aminonicotinamide-N^6 --succinic acid, 6-aminonicotinamide-N^6-succinic acid]: the IC50 in the data set with human lung fibroblasts was 2000 µM. In addition, the “activity (inhibition of cell growth), in words” value in the data set on human lung fibroblasts (interpretation of Table A) is “essentially inactive”.
Take `NC(=O)c1ccc(NC(=O)CCC(=O)N2CCCCC2)nc1` [6-Aminonicotinamide-N^6-succinyl piperidate]: in the data set on cellular enzymes, the “conversion by cellular enzymes to active 6-aminonicotinamide” value was “readily converted” and the “efficiency of conversion compared with the other alkyl or ester analogues” value is “more efficient”.
The like results for `NC(=O)c1ccc(NC(=O)CCC(=O)N2CCOCC2)nc1` [6-Aminonicotinamide-N^6-succinylmorpholidate] were, in that order, “readily converted” and “more efficient”.
`CCCCCCC(=O)Nc1ccc(C(N)=O)cn1` [N^6 --heptanoyl-6-aminonicotinamide]: the IC50 in the data set with human lung fibroblasts came to 20 µM.
